In ChEMBL document CHEMBL4024706 (Eur J Med Chem, 2017):

Assays:
[1] = biological target: Mitogen-activated protein kinase 9 (Homo sapiens) (UniProt P45984); experiment: Inhibition of wild-type human full length JNK2 (M1 to Q382 residues) expressed in mammalian expression system assessed as residual activity at 1 uM by Kinomescan method relative to control
[2] = tested on: Epidermal growth factor receptor (Homo sapiens), P00533 [L861Q]; experiment: Inhibition of human partial length EGFR L861Q mutant (R669 to V1011 residues) expressed in bacterial expression system assessed as residual activity at 1 uM by Kinomescan method relative to control
[3] = biological target: Mitogen-activated protein kinase kinase kinase 11 (Homo sapiens) (UniProt Q16584); experiment: Inhibition of wild-type human partial length MLK3 (I77 to W399 residues) expressed in bacterial expression system assessed as residual activity at 1 uM by Kinomescan method relative to control
Chain of Mitogen-activated protein kinase kinase kinase 11 (Homo sapiens) (Q16584 whole entry, looked up, the tested form may be a part): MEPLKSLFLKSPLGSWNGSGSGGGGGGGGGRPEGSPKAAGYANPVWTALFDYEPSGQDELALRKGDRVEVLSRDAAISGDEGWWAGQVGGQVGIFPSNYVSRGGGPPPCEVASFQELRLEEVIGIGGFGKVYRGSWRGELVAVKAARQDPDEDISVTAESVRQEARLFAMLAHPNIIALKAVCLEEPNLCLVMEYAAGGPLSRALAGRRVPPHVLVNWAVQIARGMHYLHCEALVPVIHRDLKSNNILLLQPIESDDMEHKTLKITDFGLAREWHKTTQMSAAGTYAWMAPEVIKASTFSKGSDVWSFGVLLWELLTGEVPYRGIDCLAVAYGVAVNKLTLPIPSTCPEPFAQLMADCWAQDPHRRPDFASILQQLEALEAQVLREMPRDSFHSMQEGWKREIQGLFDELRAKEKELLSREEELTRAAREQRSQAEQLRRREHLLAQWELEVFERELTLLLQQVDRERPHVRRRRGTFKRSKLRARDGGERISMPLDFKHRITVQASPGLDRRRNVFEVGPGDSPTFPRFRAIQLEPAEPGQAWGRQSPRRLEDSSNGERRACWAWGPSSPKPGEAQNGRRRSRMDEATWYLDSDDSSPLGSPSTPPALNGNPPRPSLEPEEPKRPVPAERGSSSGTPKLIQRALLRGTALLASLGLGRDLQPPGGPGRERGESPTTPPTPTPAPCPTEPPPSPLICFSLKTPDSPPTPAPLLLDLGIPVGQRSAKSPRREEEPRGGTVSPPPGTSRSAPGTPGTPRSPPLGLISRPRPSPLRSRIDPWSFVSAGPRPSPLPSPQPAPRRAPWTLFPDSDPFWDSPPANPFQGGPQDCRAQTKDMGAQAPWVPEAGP

[4] = biological target: Calcium/calmodulin-dependent protein kinase type IV (Homo sapiens) (UniProt Q16566); experiment: Inhibition of wild-type human partial length CAMK4 (A22 to A322 residues) expressed in bacterial expression system assessed as residual activity at 1 uM by Kinomescan method relative to control
Chain of Calcium/calmodulin-dependent protein kinase type IV (Homo sapiens) (Q16566 whole entry, the tested form may be a part): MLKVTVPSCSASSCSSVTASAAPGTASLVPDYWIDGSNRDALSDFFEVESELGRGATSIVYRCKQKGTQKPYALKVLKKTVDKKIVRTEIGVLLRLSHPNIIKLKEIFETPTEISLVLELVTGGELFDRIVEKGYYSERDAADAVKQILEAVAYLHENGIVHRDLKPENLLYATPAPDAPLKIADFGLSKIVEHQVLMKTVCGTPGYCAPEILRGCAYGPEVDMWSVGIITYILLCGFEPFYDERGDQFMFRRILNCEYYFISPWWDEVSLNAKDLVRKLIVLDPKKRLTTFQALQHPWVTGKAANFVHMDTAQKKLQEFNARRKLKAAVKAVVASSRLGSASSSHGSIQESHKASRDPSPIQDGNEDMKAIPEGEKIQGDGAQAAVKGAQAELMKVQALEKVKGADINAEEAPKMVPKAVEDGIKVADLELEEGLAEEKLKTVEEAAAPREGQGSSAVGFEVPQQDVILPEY

[5] = tested on: U2932; experiment: Induction of apoptosis in human U2932 cells assessed as induction of PARP cleavage after 48 hrs by immunoblot; format: functional, cell-based
[6] = biological target: Atypical kinase COQ8B, mitochondrial (Homo sapiens) (UniProt Q96D53); experiment: Inhibition of wild-type human full length ADCK4 (M1 to S544 residues) expressed in bacterial expression system assessed as residual activity at 1 uM by Kinomescan method relative to control
Chain of Atypical kinase COQ8B, mitochondrial (Homo sapiens) (Q96D53 whole entry, the tested form may be a part): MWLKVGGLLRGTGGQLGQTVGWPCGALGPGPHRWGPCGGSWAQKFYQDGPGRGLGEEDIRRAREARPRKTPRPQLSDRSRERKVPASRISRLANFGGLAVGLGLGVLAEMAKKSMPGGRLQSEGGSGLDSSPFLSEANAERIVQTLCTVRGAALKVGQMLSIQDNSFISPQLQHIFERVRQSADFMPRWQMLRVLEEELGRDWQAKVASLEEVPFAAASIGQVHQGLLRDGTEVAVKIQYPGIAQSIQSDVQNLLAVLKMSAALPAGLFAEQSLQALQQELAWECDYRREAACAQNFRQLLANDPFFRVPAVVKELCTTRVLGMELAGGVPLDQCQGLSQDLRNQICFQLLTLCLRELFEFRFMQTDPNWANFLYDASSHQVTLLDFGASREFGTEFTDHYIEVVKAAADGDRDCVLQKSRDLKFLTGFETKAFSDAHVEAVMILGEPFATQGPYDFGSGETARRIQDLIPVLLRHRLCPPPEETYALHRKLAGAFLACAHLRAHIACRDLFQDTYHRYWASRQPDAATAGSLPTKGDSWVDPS

[7] = biological target: Phosphatidylinositol 3-kinase catalytic subunit type 3 (Homo sapiens) (UniProt Q8NEB9); experiment: Inhibition of wild-type human partial length VPS34 (S282 to H879 residues) expressed in mammalian expression system assessed as residual activity at 1 uM by Kinomescan method relative to control
[8] = biological target: G protein-coupled receptor kinase 3 (Homo sapiens) (UniProt P35626); experiment: Inhibition of wild-type human full length GRK3 (M1 to L688 residues) expressed in mammalian expression system assessed as residual activity at 1 uM by Kinomescan method relative to control
[9] = biological target: Interleukin-1 receptor-associated kinase 3 (Homo sapiens) (UniProt Q9Y616); experiment: Inhibition of wild-type human partial length IRAK3 (V147 to E596 residues) expressed in bacterial expression system assessed as residual activity at 1 uM by Kinomescan method relative to control
Chain of Interleukin-1 receptor-associated kinase 3 (Homo sapiens) (Q9Y616 whole entry, the tested form may be a part): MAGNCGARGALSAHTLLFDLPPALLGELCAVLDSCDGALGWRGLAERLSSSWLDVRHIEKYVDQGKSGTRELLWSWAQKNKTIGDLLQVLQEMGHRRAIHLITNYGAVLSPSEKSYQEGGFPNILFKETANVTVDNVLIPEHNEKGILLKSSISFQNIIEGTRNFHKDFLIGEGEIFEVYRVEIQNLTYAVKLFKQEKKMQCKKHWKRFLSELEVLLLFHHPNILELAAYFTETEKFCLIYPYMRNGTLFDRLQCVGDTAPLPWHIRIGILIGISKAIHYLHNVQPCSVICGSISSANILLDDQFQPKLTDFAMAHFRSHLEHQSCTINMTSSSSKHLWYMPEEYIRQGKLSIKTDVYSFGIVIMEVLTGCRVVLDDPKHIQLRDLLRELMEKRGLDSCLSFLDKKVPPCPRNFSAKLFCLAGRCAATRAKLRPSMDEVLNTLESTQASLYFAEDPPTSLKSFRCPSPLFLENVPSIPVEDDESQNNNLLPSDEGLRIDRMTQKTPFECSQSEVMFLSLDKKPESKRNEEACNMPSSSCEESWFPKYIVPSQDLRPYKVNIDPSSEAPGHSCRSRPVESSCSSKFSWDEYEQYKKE

[10] = tested on: Mast/stem cell growth factor receptor Kit (Homo sapiens), P10721 [D816V]; experiment: Inhibition of human partial length KIT D816V mutant (I571 to D952 residues) expressed in bacterial expression system assessed as residual activity at 1 uM by Kinomescan method relative to control
[11] = biological target: Serine/threonine-protein kinase WNK2 (Homo sapiens) (UniProt Q9Y3S1); experiment: Inhibition of wild-type human partial length WNK2 (V47 to D482 residues) expressed in mammalian expression system assessed as residual activity at 1 uM by Kinomescan method relative to control
[12] = biological target: Ribosomal protein S6 kinase alpha-2 (Homo sapiens) (UniProt Q15349); experiment: Inhibition of wild-type human partial length N-terminal RSK3 kinase domain 1 (M1 to Q385 residues) expressed in bacterial expression system assessed as residual activity at 1 uM by Kinomescan method relative to control
[13] = biological target: Casein kinase II subunit alpha (Homo sapiens) (UniProt P68400); experiment: Inhibition of wild-type human full length CSNK2A1 (M1 to Q391 residues) expressed in mammalian expression system assessed as residual activity at 1 uM by Kinomescan method relative to control
[14] = biological target: Testis-specific serine/threonine-protein kinase 3 (Homo sapiens) (UniProt Q96PN8); experiment: Inhibition of wild-type human full length TSSK3 (M1 to T268 residues) expressed in mammalian expression system assessed as residual activity at 1 uM by Kinomescan method relative to control
Chain of Testis-specific serine/threonine-protein kinase 3 (Homo sapiens) (Q96PN8 whole entry, the tested form may be a part): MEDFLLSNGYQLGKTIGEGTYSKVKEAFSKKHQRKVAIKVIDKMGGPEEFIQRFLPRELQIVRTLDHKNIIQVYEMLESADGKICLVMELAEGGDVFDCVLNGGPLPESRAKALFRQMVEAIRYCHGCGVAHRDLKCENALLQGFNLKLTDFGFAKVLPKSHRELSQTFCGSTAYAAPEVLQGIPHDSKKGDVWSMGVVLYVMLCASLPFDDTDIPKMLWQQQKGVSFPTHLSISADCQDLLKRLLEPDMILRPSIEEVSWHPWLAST

[15] = biological target: Serine/threonine-protein kinase DCLK1 (Homo sapiens) (UniProt O15075); experiment: Inhibition of wild-type human partial length DCAMKL1 (L270 to A662 residues) expressed in mammalian expression system assessed as residual activity at 1 uM by Kinomescan method relative to control
[16] = tested on: Epidermal growth factor receptor (Homo sapiens), P00533 [UNDEFINED MUTATION]; experiment: Inhibition of human partial length EGFR L747-S752del/P753S mutant expressed in bacterial expression system assessed as residual activity at 1 uM by Kinomescan method relative to control
[17] = biological target: Serine/threonine-protein kinase MAK (Homo sapiens) (UniProt P20794); experiment: Inhibition of wild-type human partial length MAK (M1 to P314 residues) expressed in bacterial expression system assessed as residual activity at 1 uM by Kinomescan method relative to control
Chain of Serine/threonine-protein kinase MAK (Homo sapiens) (P20794 whole entry, the tested form may be a part): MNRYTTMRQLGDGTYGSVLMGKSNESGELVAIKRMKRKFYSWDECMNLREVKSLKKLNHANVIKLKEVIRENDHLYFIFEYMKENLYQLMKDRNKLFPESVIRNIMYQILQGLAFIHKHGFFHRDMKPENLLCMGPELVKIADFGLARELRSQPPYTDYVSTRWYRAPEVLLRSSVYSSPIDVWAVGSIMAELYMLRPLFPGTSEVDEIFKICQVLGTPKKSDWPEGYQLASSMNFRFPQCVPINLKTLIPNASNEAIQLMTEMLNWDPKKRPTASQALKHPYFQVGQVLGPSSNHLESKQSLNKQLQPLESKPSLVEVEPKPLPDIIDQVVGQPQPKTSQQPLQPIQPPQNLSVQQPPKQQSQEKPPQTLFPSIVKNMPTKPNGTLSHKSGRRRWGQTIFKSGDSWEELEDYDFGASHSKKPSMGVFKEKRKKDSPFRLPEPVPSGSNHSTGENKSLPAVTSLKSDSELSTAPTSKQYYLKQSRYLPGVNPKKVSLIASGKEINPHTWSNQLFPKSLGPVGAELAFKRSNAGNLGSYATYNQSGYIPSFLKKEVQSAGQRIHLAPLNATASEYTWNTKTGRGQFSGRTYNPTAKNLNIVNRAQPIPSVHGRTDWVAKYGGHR

[18] = biological target: Mitogen-activated protein kinase kinase kinase kinase 5 (Homo sapiens) (UniProt Q9Y4K4); experiment: Inhibition of wild-type human partial length MAP4K5 (M1 to P297 residues) expressed in bacterial expression system assessed as residual activity at 1 uM by Kinomescan method relative to control
[19] = biological target: Receptor-type tyrosine-protein kinase FLT3 (Homo sapiens) (UniProt P36888); experiment: Inhibition of wild-type human partial length autoinhibited FLT3 (H564 to Y969 residues) expressed in mammalian expression system assessed as residual activity at 1 uM by Kinomescan method relative to control
[20] = tested on: Epidermal growth factor receptor (Homo sapiens), P00533 [UNDEFINED MUTATION]; experiment: Inhibition of human partial length EGFR E746-A750del mutant expressed in bacterial expression system assessed as residual activity at 1 uM by Kinomescan method relative to control
[21] = biological target: Serine/threonine-protein kinase RIO1 (Homo sapiens) (UniProt Q9BRS2); experiment: Inhibition of wild-type human full length RIOK1 (M1 to K568 residues) expressed in bacterial expression system assessed as residual activity at 1 uM by Kinomescan method relative to control
Chain of Serine/threonine-protein kinase RIO1 (Homo sapiens) (Q9BRS2 whole entry, the tested form may be a part): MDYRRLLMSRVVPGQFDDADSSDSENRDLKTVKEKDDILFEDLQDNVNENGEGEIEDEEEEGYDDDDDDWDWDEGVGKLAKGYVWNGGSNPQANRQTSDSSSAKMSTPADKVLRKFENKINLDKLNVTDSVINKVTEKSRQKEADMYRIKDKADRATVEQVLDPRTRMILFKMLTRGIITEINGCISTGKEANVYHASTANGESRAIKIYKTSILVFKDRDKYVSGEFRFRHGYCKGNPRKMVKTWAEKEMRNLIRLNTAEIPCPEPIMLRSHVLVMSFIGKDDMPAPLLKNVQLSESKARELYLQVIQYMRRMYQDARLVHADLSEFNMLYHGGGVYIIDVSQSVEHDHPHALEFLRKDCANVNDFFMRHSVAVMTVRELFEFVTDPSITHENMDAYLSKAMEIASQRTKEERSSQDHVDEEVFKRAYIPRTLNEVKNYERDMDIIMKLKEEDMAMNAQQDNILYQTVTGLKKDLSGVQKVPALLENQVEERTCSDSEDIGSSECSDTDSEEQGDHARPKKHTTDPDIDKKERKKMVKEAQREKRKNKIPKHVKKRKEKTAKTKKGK

[22] = tested on: Mast/stem cell growth factor receptor Kit (Homo sapiens), P10721 [A829P]; experiment: Inhibition of human partial length KIT A829P mutant (I571 to D952 residues) expressed in mammalian expression system assessed as residual activity at 1 uM by Kinomescan method relative to control
Chain of Mast/stem cell growth factor receptor Kit (Homo sapiens), P10721 [A829P] (P10721 whole entry A829P, the tested form may be a part): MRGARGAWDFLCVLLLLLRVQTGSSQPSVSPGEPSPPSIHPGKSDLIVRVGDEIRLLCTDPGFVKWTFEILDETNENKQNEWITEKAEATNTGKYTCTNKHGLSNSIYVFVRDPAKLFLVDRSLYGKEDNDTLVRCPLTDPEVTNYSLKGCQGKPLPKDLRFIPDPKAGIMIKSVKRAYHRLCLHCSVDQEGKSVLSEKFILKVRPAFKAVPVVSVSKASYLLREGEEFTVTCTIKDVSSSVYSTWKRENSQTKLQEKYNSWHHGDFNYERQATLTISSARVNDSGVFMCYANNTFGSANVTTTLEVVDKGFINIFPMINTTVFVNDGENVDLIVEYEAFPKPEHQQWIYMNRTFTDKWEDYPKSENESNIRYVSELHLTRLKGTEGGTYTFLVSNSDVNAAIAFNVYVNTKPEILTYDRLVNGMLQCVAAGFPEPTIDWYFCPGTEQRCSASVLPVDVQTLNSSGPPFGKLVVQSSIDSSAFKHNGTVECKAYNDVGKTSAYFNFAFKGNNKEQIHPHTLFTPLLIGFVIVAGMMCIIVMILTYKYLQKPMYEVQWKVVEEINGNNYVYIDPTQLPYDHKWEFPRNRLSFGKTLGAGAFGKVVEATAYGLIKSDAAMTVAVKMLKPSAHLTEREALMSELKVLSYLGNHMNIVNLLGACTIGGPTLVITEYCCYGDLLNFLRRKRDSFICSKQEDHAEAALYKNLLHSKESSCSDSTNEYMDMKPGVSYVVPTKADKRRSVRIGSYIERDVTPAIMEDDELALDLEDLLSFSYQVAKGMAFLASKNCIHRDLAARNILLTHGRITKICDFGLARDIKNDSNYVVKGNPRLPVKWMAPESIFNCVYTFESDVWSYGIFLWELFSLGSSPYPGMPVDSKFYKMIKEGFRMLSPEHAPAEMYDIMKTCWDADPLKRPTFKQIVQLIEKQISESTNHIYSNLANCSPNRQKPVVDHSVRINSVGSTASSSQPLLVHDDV

[23] = tested on: Tyrosine-protein kinase ABL1 (Homo sapiens), P00519 [F317I]; experiment: Inhibition of human phosphorylated ABL1 F317I mutant (S229 to K512 residues) expressed in mammalian expression system assessed as residual activity at 1 uM by Kinomescan method relative to control
[24] = biological target: Serine/threonine-protein kinase D2 (Homo sapiens) (UniProt Q9BZL6); experiment: Inhibition of wild-type human partial length PRKD2 (A519 to E838 residues) expressed in bacterial expression system assessed as residual activity at 1 uM by Kinomescan method relative to control
[25] = biological target: Tyrosine-protein kinase SYK (Homo sapiens) (UniProt P43405); experiment: Inhibition of wild-type human partial length SYK (D354 to N635 residues) expressed in bacterial expression system assessed as residual activity at 1 uM by Kinomescan method relative to control

C=CC(=O)Nc1cc(Nc2cc(-c3cccc(NC(=O)c4ccc(C(C)(C)C)cc4)c3C)cn(C)c2=O)ccc1C(=O)N1CCOCC1
Activity [1]: 98% | Activity [2]: 100% | Activity [3]: 100% | Activity [4]: 77% | Activity [5]: Dose-dependent effect | Activity [6]: 100% | Activity [7]: 90% | Activity [8]: 73% | Activity [9]: 96% | Activity [10]: 92% | Activity [11]: 99% | Activity [12]: 92% | Activity [13]: 100% | Activity [14]: 100% | Activity [15]: 95% | Activity [16]: 88% | Activity [17]: 84% | Activity [18]: 100% | Activity [19]: 100% | Activity [20]: 80% | Activity [21]: 100% | Activity [22]: 93% | Activity [23]: 97% | Activity [24]: 100% | Activity [25]: 92%
